Legend:
[1] = tested on: P. aeruginosa; assay: MBEC, biofilm eradication, P. aeruginosa; assay type: cell-based, Pseudomonas aeruginosa; conditions: 24 hours, 37 °C, TSB
Experimental: (§1) A regrowth assay was used to establish the MBEC of a compound to evaluate the antibiofilm activity.
(§2) Biofilm eradication experiments were performed using a pegged-lid microtiter plate assay to determine the MBEC values for compounds of interest, as previously described. […] Sci. Rep. 2017, 7, 2003; and Raval, Y. S., Flurin, L., Mohamed, A., Greenwood-Quaintance, K. E., Beyenal, H., & Patel, R. In Vitro Activity of Hydrogen Peroxide and Hypochlorous Acid Generated by Electrochemical Scaffolds Against Planktonic and Biofilm Bacteria. Antimicrob Agents Chemother. 2021, 65, e01966-20. Briefly, […] of mid-log phase culture diluted to ca. 10^6 CFU/mL in tryptic soy broth (TSB) was added to wells of plat-bottom 96-well plates (Thermo Scientific, 266120) and covered with 96-pegged lid (Thermo Scientific, 445497). Plates were incubated to establish bacterial biofilms after incubation at 37 °C for 24 hours. The pegged lid was then removed, washed with PBS, and transferred to another 96-well plate containing 2-fold serial dilutions of the test compounds (the “challenge plate”). The total volume in each well was […], comprising of […] of compound diluted in water/DMSO, with a starting DMSO concentration of 2.5%, and […] of TSB. Plates were incubated statically at 37 °C for 24 hours. Next, the pegged lids were transferred to a fresh 96-well plate containing […] of TSB and incubated overnight at 37 °C. MBEC values were determined as the lowest test concentration that resulted eradicated biofilm (i.e., wells displaying no turbidity in the final plate).

[2] = tested on: P. aeruginosa (PAO1); assay: MIC against P. aeruginosa; assay type: cell-based; conditions: Pseudomonas aeruginosa; P. aeruginosa (PAO1); 72 hours, 37 °C; read-out: MIC
Experimental: (§3) The term “minimum inhibitory concentration (MIC)” means the lowest concentration of an antimicrobial agent that will inhibit the visible growth of a microorganism after overnight incubation. MIC values against bacteria, for example, the Gram-positive Staphylococcus aureus and Enterococcus faecalis and the Gram-negative Escherichia coli and Pseudomonas aeruginosa were determined by standard methods. See also P. A. Wayne, Methods for Dilution Antimicrobial Tests for Bacteria that Grow Aerobically; Approved Standard, Ninth Edition, 2012, CLSI Document M07-A9, Vol. 32 No. 2.
(§4) Biological testing procedures were adapted from prior work by Melander and coworkers. For all biological assays, laboratory strains of methicillin-susceptible Staphylococcus aureus MSSA (SH1000), Staphylococcus aureus CA-MRSA (USA300-0114), Staphylococcus aureus HA-MRSA (ATCC 33591), Escherichia coli (MC4100), Enterococcus faecalis (OG1RF), Acinetobacter baumannii (ATCC 17978), were grown with shaking at 37 °C overnight from freezer stocks in 5 mL of the indicated media: SH1000, OG1RF, MC4100, USA300-0114, and ATCC 17978 were grown in BDTM Mueller-Hinton broth (MHB), whereas ATCC 33591 was grown in BDTM tryptic soy broth (TSB). The inoculum were then streaked onto Mueller-Hinton agar (MHA) plates and grown overnight at 37 °C. From the plates, single colonies were selected, diluted into 50 mL of fresh media and grown overnight at 37 °C with shaking for use in the MIC assays. Optical density (OD) measurements were obtained using a SpectraMax iD3 plate reader (Molecular Devices, United States).
(§5) Compounds were serially diluted two-fold from stock solutions (1.0 mM) to yield twelve 100 μL test concentrations, wherein the starting concentration of dimethyl sulfoxide (DMSO) was 2.5%. Overnight S. aureus, E. faecalis, E. coli, A. baumannii, USA300-0114 (CA-MRSA), and ATCC 33591 (HA-MRSA) cultures were diluted to ca. 10^6 CFU/mL in MHB or TSB and regrown to mid-exponential phase, as determined by optical density recorded at 600 nm (OD600). All cultures were then diluted again to ca. 10^6 CFU/mL and 100 μL were inoculated into each well of a U-bottom 96-well plate (Corning, 351177) containing 100 μL of compound solution. Plates were incubated statically at 37 °C for 72 hours upon which wells were evaluated visually for bacterial growth. The MIC was determined as the lowest concentration of compound resulting in no bacterial growth visible to the naked eye, based on the highest value in three independent experiments. Aqueous DMSO controls were conducted as appropriate for each compound.
(§6) The prepared library of biscationic amphiphilic compounds was assessed for performance as antibacterial disinfectants by determining the minimum inhibitory concentration (MIC) for each against a panel of bacteria. The bacteria selected for the study were chosen to evaluate the broad spectrum antimicrobial performance of the QPCs, and therefore, included both Gram-positive and Gram-negative bacterial strains, including those with known antimicrobial resistance mechanisms. These bacteria include the Gram-positive strains of methicillin-susceptible Staphylococcus aureus [MSSA; SH1000], community-acquired methicillin-resistant Staphylococcus aureus [CA-MRSA; USA 300-0114], hospital-acquired methicillin-resistant Staphylococcus aureus [HA-MRSA; ATCC 33591] and the […], Escherichia coli [MC4100], Acinetobacter baumannii [ATCC 17498] and Pseudomonas aeruginosa [PAO1].

[3] = tested on: HA-MRSA (ATCC 33591); assay: MIC against hospital-acquired methicillin-resistant S. aureus (HA-MRSA); assay type: cell-based; conditions: Staphylococcus aureus, 72 h
Experimental: as §3, §4, §5, §6

[4] = tested on: A. baumannii; assay: MIC against A. baumannii; assay type: cell-based; conditions: Acinetobacter baumannii, 72 h
Experimental: as §3, §4, §5, §6

[5] = tested on: HA-MRSA; assay: MBEC, biofilm eradication, HA-MRSA; assay type: cell-based, Staphylococcus aureus; conditions: 24 hours, 37 °C, TSB
Experimental: as §1, §2

[6] = tested on: established biofilm; assay: Biofilm eradication (MBEC) over the strains tested; assay type: cell-based; conditions: pegged-lid microtiter plate assay
Experimental: as §1
Biofilm eradication experiments were performed using a pegged-lid microtiter plate assay to determine the MBEC values for compounds of interest, as previously described. […] Sci. Rep. 2017, 7, 2003; and Raval, Y. S., Flurin, L., Mohamed, A., Greenwood-Quaintance, K. E., Beyenal, H., & Patel, R. In Vitro Activity of Hydrogen Peroxide and Hypochlorous Acid Generated by Electrochemical Scaffolds Against Planktonic and Biofilm Bacteria. Antimicrob Agents Chemother. 2021, 65, e01966-20. Briefly, […] of mid-log phase culture diluted to ca. 10^6 CFU/mL in tryptic soy broth (TSB) was added to wells of plat-bottom 96-well plates (Thermo Scientific, 266120) and covered with 96-pegged lid (Thermo Scientific, 445497). […] MBEC values were determined as the lowest test concentration that resulted eradicated biofilm (i.e., wells displaying no turbidity in the final plate).
Pleased by the activity of the phosphonium compounds, the inventors sought to further investigate the antibacterial properties while comparing the effects of the heteroatom on activity. To do so, the inventors determined the minimum biofilm eradication concentration (MBEC) of bisQPC ^MeP2P-12,12 and analogous bisQAC 12(2)12 using a pegged-lid microtiter plate assay.

[7] = tested on: E. faecalis; assay: MBEC, biofilm eradication, E. faecalis; assay type: cell-based, Enterococcus faecalis; conditions: 24 hours, 37 °C, TSB
Experimental: as §1, §2

[8] = tested on: MSSA (SH1000); assay: MIC against methicillin-susceptible S. aureus (MSSA); assay type: cell-based; conditions: Staphylococcus aureus; MSSA (SH1000); 72 hours, 37 °C; read-out: MIC
Experimental: as §3, §4, §5, §6

[9] = tested on: A. baumannii; assay: MBEC, biofilm eradication, A. baumannii; assay type: cell-based, Acinetobacter baumannii; conditions: 24 hours, 37 °C, TSB
Experimental: as §1, §2

## CCCCCCCCCCCC[P+](C)(C)CC[P+](C)(C)CCCCCCCCCCC [^MeP2P-12,12]
[1]
  MBEC: >250 µM
[2]
  MIC: 8 µM
[3]
  MIC: 1 µM
[4]
  MIC: 8 µM
[5]
  MBEC: 8 µM
[6]
  ability to eradicate established biofilm (in words): ability to eradicate established biofilm against three of the strains tested
[7]
  MBEC: 8 µM
[8]
  MIC: 2 µM
[9]
  MBEC: 8 µM

## CCCCCCCCCCCC[N+](C)(C)CC[N+](C)(C)CCCCCCCCCCCC [12(2)12, reference compound]
[1]
  MBEC: >250 µM
[2]
  MIC: 8 µM
[3]
  MIC: 1 µM
[4]
  MIC: 2 µM
[5]
  MBEC: 4 µM
[6]
  ability to eradicate established biofilm (in words): ability to eradicate established biofilm against three of the strains tested
[7]
  MBEC: 8 µM
[8]
  MIC: 2 µM
[9]
  MBEC: 4 µM

Reference: patent US20260374792A1, “PHENYL-FREE BISCATIONIC QUATERNARY PHOSPHONIUM COMPOUNDS AS ANTIMICROBIAL AGENTS” (priority 2022, published 2026)
